Experimental data taken from ChEMBL document CHEMBL5352455, “Discovery of novel N-acylpyrazoles as potent and selective thrombin inhibitors” (Eur J Med Chem, 2023).

Key:
[1] = in vitro; settings: CD-1, mouse, plasma
Description: Stability in CD-1 mouse plasma assessed as half life

[2] = in vitro; settings: Sprague-Dawley, rat, plasma
Description: Stability in Sprague-Dawley rat plasma assessed as half life

[3] = in vitro; settings: human, plasma
Description: Stability in human plasma assessed as half life

[4] = Half life in CD-1 mouse at 0.5 mg/kg, iv measured after 24 hrs by LC-MS analysis; assay type: ADME, organism-based; settings: in vivo
[5] = AUC in CD-1 mouse at 0.5 mg/kg, iv measured after 24 hrs by LC-MS analysis; assay type: ADME, organism-based; parameters: time 24 hrs, dose 0.5 mg/kg, route iv; settings: in vivo
[6] = AUC in CD-1 mouse at 5 mg/kg, po measured after 24 hrs by LC-MS analysis; assay type: ADME, organism-based; parameters: dose 5 mg/kg, time 24 hrs, route po; settings: in vivo
[7] = Cmax in CD-1 mouse at 5 mg/kg, po measured after 24 hrs by LC-MS analysis; assay type: ADME, organism-based; parameters: time 24 hrs, dose 5 mg/kg, route po; settings: in vivo
[8] = Tmax in CD-1 mouse at 5 mg/kg, po measured after 24 hrs by LC-MS analysis; assay type: ADME, organism-based; settings: in vivo
[9] = Half life in CD-1 mouse at 5 mg/kg, po measured after 24 hrs by LC-MS analysis; assay type: ADME, organism-based; settings: in vivo
[10] = Oral bioavailability in CD-1 mouse at 5 mg/kg measured after 24 hrs by LC-MS analysis; assay type: ADME, organism-based; settings: in vivo

half-life [1] [min]	half-life [3] [min]	Compound	other results
> 120	> 120	C[C@@H]1CNc2c(cccc2S(=O)(=O)N[C@@H](CCCNC(=N)N)C(=O)N2CC[C@@H](C)C[C@@H]2C(=O)O)C1	half-life [2]: > 120 min
910		CC(C)(C)C(=O)n1nc(C2CCCNC2)cc1NCc1ccc(Cl)s1 (stereo unspecified)	
160		COc1ccccc1C(=O)n1nc(C2CCOCC2)cc1NCc1ccc(Cl)s1	

More lines, now with the values behind:

Compound	half-life [1] [min]	half-life [3] [min]	other results
COc1ccccc1C(=O)n1nc(-c2ccccn2)nc1NCc1ccc(Cl)s1	4.1	30	half-life [2]: 1.5 min
COc1ccccc1C(=O)n1nc(-c2ccccc2F)nc1NCc1cccs1		48	
CC(C)(C)C(=O)n1nc(-c2ccc[nH]c2=O)cc1NCc1ccc(Cl)s1	350		half-life [4]: 42 min; AUC at 24 h [5]: 300 ng·h/mL; AUC at 24 h [6]: 713 ng·h/mL; Cmax [7]: 127 ng/mL; Tmax [8]: 42 min; half-life [9]: 354 min; bioavailability [10]: 22.8%
CC(C)(CO)C(=O)n1nc(C2CCNCC2)c(F)c1NCc1ccc(Cl)s1	44		
O=C(c1ccsc1)n1nc(-c2ccccc2F)nc1NCc1cccs1		69	
CC(C)(C)C(=O)n1nc(-c2cccnn2)cc1NCc1ccc(Cl)s1		51	
COc1ccccc1C(=O)n1nc(C2CCNCC2)cc1NCc1ccc(Cl)s1	43		
